Patent US9233932B2, “Oligomer-nitroimidazole anti-infective conjugates” (NEKTAR THERAPEUTICS, priority 2007, dated 2016)
≈ marks a conversion by molar mass, not a printed value. Like-named read-outs stand apart in the source and are kept apart here.

Experiments:
[1] = system: Giardia intestinalis Portland-1 (ATCC 30888); assay: Minimum inhibitory concentration determination, micro-broth dilution, trophozoite motility; type: cell-based; conditions: for Fold Difference (Parent vs. Derivative): MIC of derivative relative to metronidazole; for activity relative to parent metronidazole: qualitative statement on MIC results
Method: Briefly, minimum inhibitory concentration was evaluated in an anti-protozoal assay against a protozoan strain, Giardia intestinalis Portland-1 (ATCC 30888), isolated from human. The organism, also referred to as Giardia lamblia, causes infection in the small intestine.
The susceptibility of G. intestinalis to the test compounds was determined using the micro-broth dilution analysis. The protozoan strain was cultured according to the supplier's recommendations. Thirteen milliliters of growth media (TYI-S-33 supplemented with bile) was inoculated with 100 μL of G. intestinalis growing culture and incubated at 37° C. for 72 hours. Following incubation, each test compound was diluted (in growth medium) to two times the high test concentration then further diluted in 1:2 increments to yield 11 test concentrations. Each test concentration (100 μL) was added in triplicate to designated wells on the plate. Trophozoites were added to each well of a 96-well round bottom plate in a volume of 100 μL at a density of 40,000 per well. The plates were cultured for 24 hours in an anaerobic chamber to assure the presence of low oxygen level.
Following the treatment incubation, cultures were visually evaluated for trophozoite motility. At each concentration, data was recorded as positive or negative for motility.
Each test compound was dissolved in DMSO to a final concentration of 80 mM. […] The starting high test concentration was to be as high as possible.

[2] = system: Giardia intestinalis; assay: In vitro antigiardial activity assay; type: cell-based
Method: Metronidazole (from two different sources) and samples prepared in accordance with Examples 1 and 2 were tested using conventional antimicrobial assay techniques for in vitro antigiardial activity at six concentrations with three-fold dilutions (10, 3.3, 1.1, 0.37, 0.122, 0.04 μg/mL). IC50 values (inhibition concentration) were determined.

[3] = lowest concentration completely inhibiting trophozoite motility, 24 hours, anaerobic chamber
[4] = average IC50 converted with MW, read-out: μM IC50
[5] = replicate 1, six concentrations, three-fold dilutions 10-0.04 μg/mL
[6] = replicate 2, six concentrations, three-fold dilutions 10-0.04 μg/mL
[7] = replicate 3, six concentrations, three-fold dilutions 10-0.04 μg/mL

Compound | Fold Difference (Parent vs. Derivative) [1] | MIC [1, 3] [µg/mL] | activity relative to parent metronidazole [1] | IC50 [2, 4] [µM] | Average IC50 ([2]; average of IC50 1-3) [µg/mL] | IC50 1 [2, 5] [µg/mL] | IC50 2 [2, 6] [µg/mL] | IC50 3 [2, 7] [µg/mL] | other results
mPEG1k metronidazole carbonate | >256 | >1000 | reductions of activity | – | – | – | – | – | –
COCCOCCOCCOCCOCCOCCOCCOC(=O)OCCn1c([N+](=O)[O-])cnc1C [PEG7 Metronidazole carbonate, mPEG7 metronidazole carbonate] | – | – | – | 7.51 | 4.03 | 4.5 (≈ 8.37 µM) | 4.2 (≈ 7.81 µM) | 3.4 (≈ 6.32 µM) | –
COCCOCCOCCOCCOCCOCCOCCOCCOCCOCCOCCOC(=O)OCCn1c([N+](=O)[O-])cnc1C [mPEG11 metronidazole carbonate] | 256 | 1000 (≈ 1400 µM) | reductions of activity | – | – | – | – | – | –
COCCOCCOCCOC(=O)OCCn1c([N+](=O)[O-])cnc1C [mPEG3 metronidazole carbonate] | 2 | 7.8 (≈ 21.6 µM) | – | 2.88 | 1.04 | 0.82 (≈ 2.27 µM) | 1.1 (≈ 3.04 µM) | 1.2 (≈ 3.32 µM) | MIC ([1]; Giardia intestinalis): 7.8 µg/mL (≈ 21.6 µM)
Cc1ncc([N+](=O)[O-])n1CCO [Metronidazole, reference compound] | 1 | – | – | 3.96 | 0.68 | – | – | – | IC50 ([2]; Giardia duodenalis, average IC50 converted with MW, read-out: μM IC50): 3.41 µM; IC50 ([2]; Giardia duodenalis, average of IC50 1-3, read-out: Average IC50): 0.58 µg/mL; IC50 ([2]; Giardia duodenalis, replicate 1, six concentrations, three-fold dilutions 10-0.04 μg/mL, read-out: IC50 1): 0.75 µg/mL; IC50 ([2]; Giardia duodenalis, replicate 2, six concentrations, three-fold dilutions 10-0.04 μg/mL, read-out: IC50 2): 0.3 µg/mL; IC50 ([2]; Giardia duodenalis, replicate 3, six concentrations, three-fold dilutions 10-0.04 μg/mL, read-out: IC50 3): 0.7 µg/mL; MIC ([1]; Giardia duodenalis, ATCC30888, Giardia intestinalis, read-out: MIC): 3.9 µg/mL (≈ 22.8 µM); MIC ([1]; Giardia duodenalis, ATCC30888, lowest concentration completely inhibiting trophozoite motility, 24 hours, anaerobic chamber, read-out: MIC): 3.9 µg/mL (≈ 22.8 µM)
mPEG21, metronidazole carbonate [mPEG21 metronidazole carbonate] | 256 | 1000 | reductions of activity | – | – | – | – | – | –
